Biological target: human F508del-CFTR (Homo sapiens, UniProt P13569, DEL508-508)
Assay: F508del-CFTR cell surface expression (corrector activity), DiscoveRx ß-galactosidase complementation chemiluminescence assay in recombinant U2OS cell line;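 also: U2OS cells co-expressing ProLink-tagged F508del-CFTR and a membrane-anchored enzyme acceptor, where more surface CFTR restores β-galactosidase activity measured by chemiluminescence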
Details: U2OS cells, 16h compound incubation; for EC50: EC50, F508del-CFTR cell surface expression, geomean of several measurements; for Emax: U2OS, in relation to the Emax of the corrector lumacaftor (=100%), arithmetic mean

human F508del-CFTR, sequence (P13569 with tags, fused parts or gaps DEL508-508): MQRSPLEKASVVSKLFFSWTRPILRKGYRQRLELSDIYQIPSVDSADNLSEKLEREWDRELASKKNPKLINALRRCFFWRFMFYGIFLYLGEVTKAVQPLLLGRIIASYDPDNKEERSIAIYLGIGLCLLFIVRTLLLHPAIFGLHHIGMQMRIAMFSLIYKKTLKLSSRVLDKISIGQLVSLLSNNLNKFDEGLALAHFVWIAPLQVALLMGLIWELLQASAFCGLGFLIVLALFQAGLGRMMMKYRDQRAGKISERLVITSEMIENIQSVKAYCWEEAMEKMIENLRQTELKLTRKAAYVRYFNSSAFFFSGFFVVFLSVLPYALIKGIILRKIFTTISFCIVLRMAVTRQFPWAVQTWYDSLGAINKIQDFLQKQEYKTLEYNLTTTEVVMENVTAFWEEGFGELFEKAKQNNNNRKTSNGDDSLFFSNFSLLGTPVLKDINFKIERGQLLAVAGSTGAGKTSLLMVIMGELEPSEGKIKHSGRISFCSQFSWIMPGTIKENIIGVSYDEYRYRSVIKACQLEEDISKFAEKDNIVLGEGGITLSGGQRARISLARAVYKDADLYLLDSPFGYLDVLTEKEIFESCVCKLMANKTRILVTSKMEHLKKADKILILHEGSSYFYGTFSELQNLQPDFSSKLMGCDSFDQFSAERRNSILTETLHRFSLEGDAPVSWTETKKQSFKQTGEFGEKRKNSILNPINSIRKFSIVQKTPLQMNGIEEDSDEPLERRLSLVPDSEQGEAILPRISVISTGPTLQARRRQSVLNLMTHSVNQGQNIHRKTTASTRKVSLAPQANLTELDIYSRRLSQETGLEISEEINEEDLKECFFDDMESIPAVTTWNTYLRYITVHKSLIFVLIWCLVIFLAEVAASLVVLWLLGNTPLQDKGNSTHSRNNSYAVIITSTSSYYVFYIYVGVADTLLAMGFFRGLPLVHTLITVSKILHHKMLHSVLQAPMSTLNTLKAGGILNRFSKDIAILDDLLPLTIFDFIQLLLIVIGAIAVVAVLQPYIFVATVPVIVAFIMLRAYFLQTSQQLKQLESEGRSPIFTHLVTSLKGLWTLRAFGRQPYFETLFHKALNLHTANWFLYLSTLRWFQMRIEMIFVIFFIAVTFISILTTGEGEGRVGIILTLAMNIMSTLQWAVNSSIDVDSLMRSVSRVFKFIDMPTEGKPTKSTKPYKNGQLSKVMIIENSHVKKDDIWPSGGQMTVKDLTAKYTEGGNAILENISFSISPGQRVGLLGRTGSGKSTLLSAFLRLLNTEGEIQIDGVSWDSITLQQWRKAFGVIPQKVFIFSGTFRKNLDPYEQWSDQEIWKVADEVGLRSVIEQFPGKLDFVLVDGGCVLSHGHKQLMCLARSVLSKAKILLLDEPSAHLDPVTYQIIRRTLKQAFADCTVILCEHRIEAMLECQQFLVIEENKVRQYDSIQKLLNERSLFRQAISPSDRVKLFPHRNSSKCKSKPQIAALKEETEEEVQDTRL

EC50 [nM] | Emax [%] | SMILES
674 | 354 | Cc1cc2c3c(ccc2cn1)OC[C@@H](Cc1ccccc1)NC(=O)[C@@H](C)N(C)C(=O)[C@H](CC(C)C)N(C)C(=O)C[C@@H](C(=O)NCCc1cc(C)no1)NC3=O [Example 824, (3S,7S,10R,13R)-13-benzyl-7-isobutyl-6,9,10,20-tetramethyl-N-(2-(3-methylisoxazol-5-yl)ethyl)-1,5,8,11-tetraoxo-1,2,3,4,5,6,7,8,9,10,11,12,13,14-tetradecahydro-[1]oxa[4,7,10,14]tetraazacycloheptadecino[16,17-f]isoquinoline-3-carboxamide]
353 | 388 | COc1cc(CCNC(=O)[C@@H]2CC(=O)N(C)[C@@H](CC(C)C)C(=O)N(C)[C@H](C)C(=O)N[C@H](Cc3ccccc3)COc3ccc4cnc(C)cc4c3C(=O)N2)on1 [Example 825, (3S,7S,10R,13R)-13-benzyl-7-isobutyl-N-(2-(3-methoxyisoxazol-5-yl)ethyl)-6,9,10,20-tetramethyl-1,5,8,11-tetraoxo-1,2,3,4,5,6,7,8,9,10,11,12,13,14-tetradecahydro-[1]oxa[4,7,10,14]tetraazacycloheptadecino[16,17-f]isoquinoline-3-carboxamide]
283 | 340 | Cc1cc2c3c(ccc2cn1)OC[C@@H](Cc1ccccc1)NC(=O)[C@@H](C)N(C)C(=O)[C@H](CC(C)C)N(C)C(=O)C[C@@H](C(=O)NCCc1nc(C2CC2)no1)NC3=O [Example 826, (3S,7S,10R,13R)-13-benzyl-N-(2-(3-cyclopropyl-1,2,4-oxadiazol-5-yl)ethyl)-7-isobutyl-6,9,10,20-tetramethyl-1,5,8,11-tetraoxo-1,2,3,4,5,6,7,8,9,10,11,12,13,14-tetradecahydro-[1]oxa[4,7,10,14]tetraazacycloheptadecino[16,17-f]isoquinoline-3-carboxamide]
54 | 379 | COc1cc(CCNC(=O)[C@@H]2CC(=O)N(C)[C@@H](CC(C)C)C(=O)N(C)[C@H](CN3CCC(F)(F)C3)C(=O)N[C@H](Cc3ccccc3)COc3cnc4ccc(F)cc4c3C(=O)N2)on1 [Example 827, (3S,7S,10R,13R)-13-benzyl-10-((3,3-difluoropyrrolidin-1-yl)methyl)-20-fluoro-7-isobutyl-N-(2-(3-methoxyisoxazol-5-yl)ethyl)-6,9-dimethyl-1,5,8,11-tetraoxo-1,2,3,4,5,6,7,8,9,10,11,12,13,14-tetradecahydro-[1]oxa[4,7,10,14]tetraazacycloheptadecino[17,16-c]quinoline-3-carboxamide]
142 | 320 | CC(C)C[C@H]1C(=O)N2CCCC[C@@H]2C(=O)N[C@H](Cc2ccccc2)COc2ccc3ncc(F)cc3c2C(=O)N[C@H](C(=O)NCCn2nnc(C3CC3)n2)CC(=O)N1C [Example 829, (9S,13S,19aR,22R)-22-benzyl-N-(2-(5-cyclopropyl-2H-tetrazol-2-yl)ethyl)-5-fluoro-13-isobutyl-12-methyl-7,11,14,20-tetraoxo-7,8,9,10,11,12,13,14,17,18,19,19a,20,21,22,23-hexadecahydro-16H-pyrido[2′,1′:6,7][1]oxa[4,7,10,14]tetraazacycloheptadecino[16,17-f]quinoline-9-carboxamide]
1040 | 310 | COCCn1cc(CCNC(=O)[C@@H]2CC(=O)N(C)[C@@H](CC(C)C)C(=O)N(C)C3(CC3)C(=O)N[C@H](Cc3ccccc3)COc3cnc4ccc(F)cc4c3C(=O)N2)cn1 [Example 830, (3′S,7′S,13′R)-13′-benzyl-20′-fluoro-7′-isobutyl-N-(2-(1-(2-methoxyethyl)-1H-pyrazol-4-yl)ethyl)-6′,9′-dimethyl-1′,5′,8′,11′-tetraoxo-2′,3′,4′,5′,6′,7′,8′,9′,11′,12′,13′,14′-dodecahydro-1′H-spiro[cyclopropane-1,10′-[1]oxa[4,7,10,14]tetraazacycloheptadecino[17,16-c]quinoline]-3′-carboxamide]
491 | 231 | COc1nccc2c1C(=O)N[C@H](C(=O)NCC(F)(F)c1nc(C3CC3)no1)CC(=O)N(C)[C@@H](CC(C)C)C(=O)N1CCCC[C@@H]1C(=O)N[C@H](Cc1ccccc1)CO2 [Example 831, (7S,11S,17aR,20R)-20-benzyl-N-(2-(3-cyclopropyl-1,2,4-oxadiazol-5-yl)-2,2-difluoroethyl)-11-isobutyl-4-methoxy-10-methyl-5,9,12,18-tetraoxo-5,6,7,8,9,10,11,12,15,16,17,17a,18,19,20,21-hexadecahydro-14H-dipyrido[2,1-f:3′,4′-p][1]oxa[4,7,10,14]tetraazacycloheptadecine-7-carboxamide]
518 | 367 | COc1nccc2c1C(=O)N[C@H](C(=O)NCCn1nc3ccccc3n1)CC(=O)N(C)[C@@H](CC(C)C)C(=O)N1CCCC[C@@H]1C(=O)N[C@H](Cc1ccccc1)CO2 [Example 832, (7S,11S,17aR,20R)-N-(2-(2H-benzo[d][1,2,3]triazol-2-yl)ethyl)-20-benzyl-11-isobutyl-4-methoxy-10-methyl-5,9,12,18-tetraoxo-5,6,7,8,9,10,11,12,15,16,17,17a,18,19,20,21-hexadecahydro-14H-dipyrido[2,1-f:3′,4′-p][1]oxa[4,7,10,14]tetraazacycloheptadecine-7-carboxamide]
615 | 411 | COc1nccc2c1C(=O)N[C@H](C(=O)NCCn1nnc(C3CC3)n1)CC(=O)N(C)[C@@H](CC(C)C)C(=O)N1CCCC[C@@H]1C(=O)N[C@H](Cc1ccccc1)CO2 [Example 833, (7S,11S,17aR,20R)-20-benzyl-N-(2-(5-cyclopropyl-2H-tetrazol-2-yl)ethyl)-11-isobutyl-4-methoxy-10-methyl-5,9,12,18-tetraoxo-5,6,7,8,9,10,11,12,15,16,17,17a,18,19,20,21-hexadecahydro-14H-dipyrido[2,1-f:3′,4′-p][1]oxa[4,7,10,14]tetraazacycloheptadecine-7-carboxamide]
240 | 300 | C#Cc1nn(CCNC(=O)[C@@H]2CC(=O)N(C)[C@@H](CC(C)C)C(=O)N3CCCC[C@@H]3C(=O)N[C@H](Cc3ccccc3)COc3cc(C)nc(OC)c3C(=O)N2)nc1C [Example 834, (7S,11S,17aR,20R)-20-benzyl-N-(2-(4-ethynyl-5-methyl-2H-1,2,3-triazol-2-yl)ethyl)-11-isobutyl-4-methoxy-2,10-dimethyl-5,9,12,18-tetraoxo-5,6,7,8,9,10,11,12,15,16,17,17a,18,19,20,21-hexadecahydro-14H-dipyrido[2,1-f:3′,4′-p][1]oxa[4,7,10,14]tetraazacycloheptadecine-7-carboxamide]

SMILES | EC50 [nM] | Emax [%]
COc1nc(C)cc2c1C(=O)N[C@H](C(=O)NC[C@@H](O)c1ccccc1)CC(=O)N(C)[C@@H](CC(C)C)C(=O)N(C)[C@H](CC(C)C)C(=O)N[C@H](Cc1ccccc1)CO2 [Example 828, (3R,6R,9S,13S)-3-benzyl-N-((S)-2-hydroxy-2-phenylethyl)-6,9-diisobutyl-16-methoxy-7,10,18-trimethyl-5,8,11,15-tetraoxo-2,3,4,5,6,7,8,9,10,11,12,13,14,15-tetradecahydropyrido[3,4-p][1]oxa[4,7,10,14]tetraazacycloheptadecine-13-carboxamide] | 299 | 317

— patent publication US20240208992A1, “MACROCYCLES AS CFTR MODULATORS” (Idorsia Pharmaceuticals Ltd, priority 2021, published 2024)
